According to patent publication US20240150293A1, “SPIROCYCLOHEXANE DERIVATIVES, PHARMACEUTICAL COMPOSITIONS CONTAINING THEM AND THEIR USES AS ANTI-APOPTOTIC INHIBITORS” (LES LABORATOIRES SERVIER, priority 2021, published 2024):
pKi: −log10 of the molar value.

These compounds were tested against Mcl-1 protein (UniProtKB Q07820) (Homo sapiens (Human), UniProt Q07820) (assay: Inhibition of Mcl-1 by the fluorescence polarisation assay (Example A, Method A)). Details: fluorescence polarization assay.
Format: binding
Method in brief: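 Protein (5 nM) and fluorescein-tagged peptide tracer (1 nM) incubated with 11-point compound series for 2 h at room temperature in HEPES/NaCl/Tween 20 buffer, pH 7.4, 5% DMSO. Displacement read as decrease in polarisation; IC50 fitted by 4-parameter logistic, converted to Ki (cKi or eKi).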

Sequence of Mcl-1 protein (Q07820 whole entry): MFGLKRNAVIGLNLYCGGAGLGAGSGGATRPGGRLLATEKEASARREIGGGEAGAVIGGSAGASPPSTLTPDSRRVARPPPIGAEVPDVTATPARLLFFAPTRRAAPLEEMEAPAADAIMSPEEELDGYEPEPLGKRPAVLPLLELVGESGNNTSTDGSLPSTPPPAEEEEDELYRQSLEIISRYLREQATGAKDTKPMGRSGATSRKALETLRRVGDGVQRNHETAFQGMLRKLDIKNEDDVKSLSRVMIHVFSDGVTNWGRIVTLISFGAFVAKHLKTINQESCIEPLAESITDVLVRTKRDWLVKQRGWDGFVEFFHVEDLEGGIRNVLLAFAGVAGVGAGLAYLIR

Structure (SMILES)	pKi
CC(C)C(COc1ccncc1)CC1Cc2ccccc2[C@]12CC[C@@](Nc1cccc(Cl)c1)(C(=O)O)CC2 (single isomer, unassigned) [Example 534, (1r,4r)-4-(3-chloroanilino)-2′-(3-methyl-2-{[(pyridin-4-yl)oxy]methyl}butyl)-2′,3′-dihydrospiro[cyclohexane-1,1′-indene]-4-carboxylic acid]	5.82
O=C(O)[C@]1(Nc2cccc(Cl)c2)CC[C@@]2(CCc3ccccc32)CC1 [Example 69, (1r,4s)-4-(3-chloroanilino)-2′,3′-dihydrospiro[cyclohexane-1,1′-indene]-4-carboxylic acid]	6.15
O=C(O)[C@]1(Nc2cccc(Cl)c2)CC[C@@]2(CC1)c1ccccc1C[C@@H]2c1ccc(-c2ccccc2)o1 [Example 357, (1r,2′S,4S)-4-(3-chloroanilino)-2′-(5-phenylfuran-2-yl)-2′,3′-dihydrospiro[cyclohexane-1,1′-indene]-4-carboxylic acid]	4.81
Cn1cc(C2Cc3ccccc3[C@]23CC[C@](Nc2cccc(Br)c2)(C(=O)O)CC3)cn1 (stereo partly drawn) [Example 213, (1s,4s)-4-(3-bromoanilino)-2′-(1-methyl-1H-pyrazol-4-yl)-2′,3′-dihydrospiro[cyclohexane-1,1′-indene]-4-carboxylic acid]	4.06
Cc1cncn(CCCC2=Cc3ccccc3[C@]23CC[C@@](Nc2cccc(Cl)c2)(C(=O)O)CC3)c1=O [Example 182, (1r,4r)-4-(3-chloroanilino)-2′-[3-(5-methyl-6-oxopyrimidin-1 (6H)-yl)propyl]spiro[cyclohexane-1,1′-indene]-4-carboxylic acid]	5.79
C[C@@H](COc1ccccc1)CC1Cc2ccccc2[C@]12CC[C@@](Nc1cccc(Cl)c1)(C(=O)O)CC2 (stereo partly drawn) [Example 567, (1r,4R)-4-(3-chloroanilino)-2′-[(2R)-2-methyl-3-phenoxypropyl]-2′,3′-dihydrospiro[cyclohexane-1,1′-indene]-4-carboxylic acid]	6.81
CC[C@H]1c2ccccc2[C@]2(CC[C@@](Nc3cccc(Cl)c3)(C(=O)O)CC2)[C@H]1C (racemic) [Example 207, (1r,2′RS,3′SR,4r)-4-(3-chloroanilino)-3′-ethyl-2′-methyl-2′,3′-dihydrospiro[cyclohexane-1,1′-indene]-4-carboxylic acid]	5.33
O=C(O)[C@]1(Nc2cccc(Cl)c2)CC[C@]2(CC1)C(/C=C/CC1CCCC1)=Cc1ccccc12 [Example 152, (1r,4r)-4-(3-chloroanilino)-2′-[(1E)-3-cyclopentylprop-1-en-1-yl]spiro[cyclohexane-1,1′-indene]-4-carboxylic acid]	6.22
COc1cccc(C)c1C1=Cc2ccccc2[C@]12CC[C@@](Nc1cccc(Cl)c1)(C(=O)O)CC2 [Example 248, (1s,4s)-4-(3-chloroanilino)-2′-(2-methoxy-6-methylphenyl)spiro[cyclohexane-1,1′-indene]-4-carboxylic acid]	4.55
Cc1ccc(C2=Cc3ccccc3[C@]23CC[C@@](Nc2cccc(Cl)c2)(C(=O)O)CC3)cc1 [Example 297, (1s,4s)-4-(3-chloroanilino)-2′-(4-methylphenyl)spiro[cyclohexane-1,1′-indene]-4-carboxylic acid]	5.63
CC1=C(C)[C@]2(CC[C@@](Nc3cccc(Br)c3)(C(=O)O)CC2)c2ccccc21 [Example 203, (1s,4s)-4-(3-bromoanilino)-2′,3′-dimethylspiro[cyclohexane-1,1′-indene]-4-carboxylic acid]	4.40
O=C(O)[C@]1(Nc2cccc(Cl)c2)CC[C@]2(CC1)C(C1CN(Cc3c(F)ccc(F)c3F)C1)=Cc1ccccc12 [Example 99, (1r,4r)-4-(3-chloroanilino)-2′-{1-[(2,3,6-trifluorophenyl)methyl]azetidin-3-yl}spiro[cyclohexane-1,1′-indene]-4-carboxylic acid]	5.54
O=C(O)[C@]1(Nc2cccc(Cl)c2)CC[C@@]2(CC1)c1ccccc1CC2CCCS(=O)(=O)c1ccccc1 (stereo partly drawn) [Example 398, (1r,4r)-2′-[3-(benzenesulfonyl)propyl]-4-(3-chloroanilino)-2′,3′-dihydrospiro[cyclohexane-1,1′-indene]-4-carboxylic acid]	5.88
C#Cc1ccc2c(c1)[C@]1(CC[C@](Nc3cccc(Br)c3)(C(=O)O)CC1)C(=O)N2C [Example 18, (1r,4r)-4-(3-bromoanilino)-5′-ethynyl-1′-methyl-2′-oxo-1′,2′-dihydrospiro[cyclohexane-1,3′-indole]-4-carboxylic acid]	4.50
CN1CCN(CCCC2Cc3ccccc3[C@]23CC[C@@](Nc2cccc(Cl)c2)(C(=O)O)CC3)CC1=O (stereo partly drawn) [Example 198, (1r,4r)-4-(3-chloroanilino)-2′-[3-(4-methyl-3-oxopiperazin-1-yl)propyl]-2′,3′-dihydrospiro[cyclohexane-1,1′-indene]-4-carboxylic acid]	5.13
COc1ccc(CCCC2Cc3ccccc3[C@]23CC[C@@](Nc2cccc(Cl)c2)(C(=O)O)CC3)cc1 (stereo partly drawn) [Example 161, (1r,4r)-4-(3-chloroanilino)-2′-[3-(4-methoxyphenyl)propyl]-2′,3′-dihydrospiro[cyclohexane-1,1′-indene]-4-carboxylic acid]	6.35
O=C(O)[C@]1(Nc2cccc(Cl)c2)CC[C@@]2(CC1)c1ccccc1CC2CCCOc1ccnc2c1CCC2F (stereo partly drawn) [Example 476, (1r,4r)-4-(3-chloroanilino)-2′-{3-[(7-fluoro-6,7-dihydro-5H-cyclopenta[b]pyridin-4-yl)oxy]propyl}-2′,3′-dihydrospiro[cyclohexane-1,1′-indene]-4-carboxylic acid]	6.77
CC1N(C)c2ccccc2[C@]12CC[C@](Nc1cccc(Br)c1)(C(=O)O)CC2 (stereo partly drawn) [Example 23, (1r,4r)-4-(3-bromoanilino)-1′,2′-dimethyl-1′,2′-dihydrospiro[cyclohexane-1,3′-indole]-4-carboxylic acid]	5.97
Cc1ccccc1CCOCC1=Cc2ccccc2[C@]12CC[C@@](Nc1cccc(Cl)c1)(C(=O)O)CC2 [Example 415, (1s,4s)-4-(3-chloroanilino)-2′-{[2-(2-methylphenyl)ethoxy]methyl}spiro[cyclohexane-1,1′-indene]-4-carboxylic acid]	6.44
O=C(O)[C@]1(Nc2cccc(Cl)c2)CC[C@@]2(CC1)c1ccccc1CC2c1cccc(Oc2ccncc2)c1 (single isomer, unassigned) [Example 376, (1r,4r)-4-(3-chloroanilino)-2′-{3-[(pyridin-4-yl)oxy]phenyl}-2′,3′-dihydrospiro[cyclohexane-1,1′-indene]-4-carboxylic acid]	6.57
O=C(O)[C@]1(Nc2cccc(Cl)c2)CC[C@@]2(CC1)c1ccccc1CC2c1ccc(OCc2ccccc2)cc1 (single isomer, unassigned) [Example 352, (1r,4r)-2′-[4-(benzyloxy)phenyl]-4-(3-chloroanilino)-2′,3′-dihydrospiro[cyclohexane-1,1′-indene]-4-carboxylic acid]	6.10

Continued, values first:

pKi	Structure (SMILES)
6.17	O=C(O)[C@]1(Nc2cccc(Cl)c2)CC[C@@]2(CC1)c1ccccc1CC2c1ccccc1 (single isomer, unassigned) [Example 328, (1r,4r)-4-(3-chloroanilino)-2′-phenyl-2′,3′-dihydrospiro[cyclohexane-1,1′-indene]-4-carboxylic acid]
4.66	CN1c2ccc(I)cc2[C@]2(CC[C@](Nc3cccc(Br)c3)(C(=O)O)CC2)C1=O [Example 5, (1r,4r)-4-(3-bromoanilino)-5′-iodo-1′-methyl-2′-oxo-1′,2′-dihydrospiro[cyclohexane-1,3′-indole]-4-carboxylic acid]
6.25	O=C(O)[C@]1(Nc2cccc(Cl)c2)CC[C@]2(CC1)C(c1ccccc1Cl)=Cc1ccccc12 [Example 311, (1s,4s)-4-(3-chloroanilino)-2′-(2-chlorophenyl)spiro[cyclohexane-1,1′-indene]-4-carboxylic acid]
4.63	COc1ccc(C2=Cc3ccccc3[C@]23CC[C@](Nc2cccc(Cl)c2)(C(=O)O)CC3)cc1Cl [Example 226, (1r,4r)-4-(3-chloroanilino)-2′-(3-chloro-4-methoxyphenyl)spiro[cyclohexane-1,1′-indene]-4-carboxylic acid]
4.39	COc1ccc(C2Cc3ccccc3[C@]23CC[C@@](Nc2ccccc2)(C(=O)O)CC3)c(C)c1 (single isomer, unassigned) [Example 257, (1r,4r)-4-anilino-2′-(4-methoxy-2-methylphenyl)-2′,3′-dihydrospiro[cyclohexane-1,1′-indene]-4-carboxylic acid]
6.14	O=C(O)[C@]1(Nc2cccc(Cl)c2)CC[C@]2(CC1)C(c1ccc(OCc3ccccc3)cc1)=Cc1ccccc12 [Example 309, (1s,4s)-2′-[4-(benzyloxy)phenyl]-4-(3-chloroanilino)spiro[cyclohexane-1,1′-indene]-4-carboxylic acid]
4.49	O=c1ccn(CCCC2Cc3ccccc3[C@]23CC[C@@](Nc2cccc(Cl)c2)(C(=O)O)CC3)cc1 (stereo partly drawn) [Example 167, (1r,4r)-4-(3-chloroanilino)-2′-[3-(4-oxopyridin-1 (4H)-yl)propyl]-2′,3′-dihydrospiro[cyclohexane-1,1′-indene]-4-carboxylic acid]
6.65	O=C(O)[C@]1(Nc2cccc(Cl)c2)CC[C@@]2(CC1)c1ccccc1CC2CCOc1ccccc1 (stereo partly drawn) [Example 177, (1r,4r)-4-(3-chloroanilino)-2′-(2-phenoxyethyl)-2′,3′-dihydrospiro[cyclohexane-1,1′-indene]-4-carboxylic acid]
7.13	O=C(O)[C@]1(Nc2cccc(Cl)c2)CC[C@@]2(CC1)c1ccccc1CC2CCOc1cccc2[nH]ccc12 (stereo partly drawn) [Example 185, (1r,4r)-4-(3-chloroanilino)-2′-{2-[(1H-indol-4-yl)oxy]ethyl}-2′,3′-dihydrospiro[cyclohexane-1,1′-indene]-4-carboxylic acid]
